Assay results taken from PubChem BioAssay AID256 (DTP/NCI, 2004).
Where “and” joins values, the source holds several entries; their conditions need not be identical. Equal entries are not always repeated. Inconclusive results and toxic doses are left out. The calls were made as follows: active = survival T/C of 150% or more; inactive = T/C below 125% in these data.

Test system: CD2F1 mice, L1210 leukemia ip, survival T/C
Test: NCI In Vivo Anticancer Drug Screen. Data for tumor model L1210 Leukemia (intraperitoneal) in CD2F1 (CDF1) mice
Conditions: endpoint: mean survival time, higher = longer survival
Outline: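 Ratio T/C, where T is the treated-group value and C the vehicle-dosed control value, from mice implanted with a transplantable tumor.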

[1] = dose: 25.0 mg/kg/injection, schedule: Q01DX009 (ip), vehicle: other
[2] = dose: 50.0 mg/kg/injection, schedule: Q01DX009 (ip), vehicle: other
[3] = dose: 100.0 mg/kg/injection, schedule: Q01DX009 (ip), vehicle: other
[4] = dose: 12.5 mg/kg/injection, schedule: Q01DX009 (ip), vehicle: water
[5] = dose: 25.0 mg/kg/injection, schedule: Q01DX009 (ip), vehicle: water
[6] = dose: 50.0 mg/kg/injection, schedule: Q01DX009 (ip), vehicle: water
[7] = dose: 100.0 mg/kg/injection, schedule: Q01DX009 (ip), vehicle: water
[8] = dose: 100.0 mg/kg/injection, schedule: Q01DX001 (ip), vehicle: saline with Tween-80
[9] = dose: 200.0 mg/kg/injection, schedule: Q01DX001 (ip), vehicle: saline with Tween-80

Measured: T/C

O=C(c1ccccc1)C1C(c2ccccc2)C2(CCCCC2=O)C(c2ccccc2)CC1(O)c1ccccc1 (centres undefined)
inactive: dose: 100.0 mg/kg/injection, schedule: Q01DX001 (ip), vehicle: Klucel (hydroxypropylcellulose) (HPC) 96 % of control

O=C(COc1ccccc1)N/N=C/c1ccccc1O
inactive: dose: 100.0 mg/kg/injection, schedule: Q01DX009 (ip), vehicle: saline with Tween-80 92 % of control

Cc1ccc(S(=O)(=O)Nc2ccccc2N(CCN(CCOS(=O)(=O)c2ccc(C)cc2)S(=O)(=O)c2ccc(C)cc2)S(=O)(=O)c2ccc(C)cc2)cc1
inactive: dose: 25.0 mg/kg/injection, schedule: Q04DX003 (ip), vehicle: saline with Tween-80 95 % of control | dose: 50.0 mg/kg/injection, schedule: Q04DX003 (ip), vehicle: saline with Tween-80 100 % of control | dose: 100.0 mg/kg/injection, schedule: Q04DX003 (ip), vehicle: saline with Tween-80 91 % of control | dose: 200.0 mg/kg/injection, schedule: Q04DX003 (ip), vehicle: saline with Tween-80 95 % of control

COc1ccc2nc3cc(Cl)ccc3c(Nc3cccc(NC(C)=O)c3)c2n1
inactive: [1] 102 % of control | [2] 96 % of control | [3] 86 % of control

O=C(O)CCOc1ccc(F)cc1F
inactive: dose: 100.0 mg/kg/injection, schedule: Q04DX002 (ip), vehicle: saline with Tween-80 86 % of control | dose: 200.0 mg/kg/injection, schedule: Q04DX002 (ip), vehicle: saline with Tween-80 90 % of control | dose: 400.0 mg/kg/injection, schedule: Q04DX002 (ip), vehicle: saline with Tween-80 86 % of control

CC1C(c2ccccc2)OP(=O)(N(CCCl)CCCl)N1C (centres undefined)
inactive: dose: 1.56 mg/kg/injection, schedule: Q01DX009 (ip), vehicle: other 110 % of control | dose: 3.13 mg/kg/injection, schedule: Q01DX009 (ip), vehicle: other 101 % of control | dose: 6.25 mg/kg/injection, schedule: Q01DX009 (ip), vehicle: other 98 % of control | dose: 12.5 mg/kg/injection, schedule: Q01DX009 (ip), vehicle: other 103 % of control and 95 % of control and 97 % of control | [4] 92 % of control | dose: 25.0 mg/kg/injection, schedule: Q01DX001 (ip), vehicle: other 97 % of control and 100 % of control | [1] 104 % of control and 95 % of control | [5] 86 % of control | dose: 31.3 mg/kg/injection, schedule: Q01DX001 (ip), vehicle: other 104 % of control [middle of 4 runs] | dose: 50.0 mg/kg/injection, schedule: Q01DX001 (ip), vehicle: other 102 % of control and 92 % of control | [2] 95 % of control and 100 % of control | [6] 100 % of control | dose: 62.5 mg/kg/injection, schedule: Q01DX001 (ip), vehicle: other 104 % of control and 103 % of control and 101 % of control | dose: 100.0 mg/kg/injection, schedule: Q01DX001 (ip), vehicle: other 103 % of control and 97 % of control | [3] 97 % of control and 100 % of control | [7] 88 % of control | dose: 125.0 mg/kg/injection, schedule: Q01DX001 (ip), vehicle: other 95 % of control and 101 % of control and 104 % of control | dose: 200.0 mg/kg/injection, schedule: Q01DX001 (ip), vehicle: other 103 % of control and 108 % of control | dose: 200.0 mg/kg/injection, schedule: Q01DX009 (ip), vehicle: other 95 % of control and 101 % of control | dose: 250.0 mg/kg/injection, schedule: Q01DX001 (ip), vehicle: other 103 % of control and 98 % of control and 97 % of control | dose: 500.0 mg/kg/injection, schedule: Q01DX001 (ip), vehicle: other 107 % of control and 103 % of control and 104 % of control

COc1cc2c(cc1OC)C(NC=O)CCC2 (centres undefined)
inactive: [4] 102 % of control | [5] 102 % of control | [6] 102 % of control | [7] 100 % of control | dose: 200.0 mg/kg/injection, schedule: Q01DX009 (ip), vehicle: water 104 % of control

CN(C(=O)CCC(=O)N(C)c1ccccc1)c1ccccc1
inactive: [8] 103 % of control | [9] 92 % of control | dose: 400.0 mg/kg/injection, schedule: Q01DX001 (ip), vehicle: saline with Tween-80 92 % of control

CSc1ncc(N=C=O)c(=O)[nH]1
inactive: [8] 94 % of control | [9] 94 % of control

CCC[CH2][Sn]1([CH2]CCC)[O]OC(C)(CC)[O]1 (centres undefined)
inactive: dose: 0.78 mg/kg/injection, schedule: Q01DX009 (ip), vehicle: saline with Tween-80 95 % of control | dose: 1.56 mg/kg/injection, schedule: Q01DX009 (ip), vehicle: saline with Tween-80 110 % of control | dose: 3.13 mg/kg/injection, schedule: Q01DX009 (ip), vehicle: saline with Tween-80 112 % of control

NC(N)=NC(N)=Nc1ccc(C(=O)O)c(O)c1
inactive: dose: 100.0 mg/kg/injection, schedule: Q01DX009 (ip), vehicle: saline 106 % of control | dose: 200.0 mg/kg/injection, schedule: Q01DX009 (ip), vehicle: saline 95 % of control | dose: 400.0 mg/kg/injection, schedule: Q01DX009 (ip), vehicle: saline 95 % of control
